The target of data set [1] is Lp(a) assembly in HepG2 cells overexpressing ApoA protein (Homo sapiens (Human), UniProt P08519). Nature of the data set: ELISA assay on screening Lp(a) assembly inhibition. Type of data set: cell-based. To be noted: HepG2 cells overexpressing ApoA protein, 24 h, ELISA of supernatant. The method, boiled down: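 HepG2 cells overexpressing ApoA treated with diluted compounds for 24 h at 37 °C, 5% CO2; EACA (10 μL of 1.5 M) added before harvesting supernatant. Secreted Lp(a) quantified by sandwich ELISA; IC50 from four-parameter Hill fit of % inhibition versus concentration.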
Chain of Lp(a) assembly in HepG2 cells overexpressing ApoA protein (P08519 20-2040): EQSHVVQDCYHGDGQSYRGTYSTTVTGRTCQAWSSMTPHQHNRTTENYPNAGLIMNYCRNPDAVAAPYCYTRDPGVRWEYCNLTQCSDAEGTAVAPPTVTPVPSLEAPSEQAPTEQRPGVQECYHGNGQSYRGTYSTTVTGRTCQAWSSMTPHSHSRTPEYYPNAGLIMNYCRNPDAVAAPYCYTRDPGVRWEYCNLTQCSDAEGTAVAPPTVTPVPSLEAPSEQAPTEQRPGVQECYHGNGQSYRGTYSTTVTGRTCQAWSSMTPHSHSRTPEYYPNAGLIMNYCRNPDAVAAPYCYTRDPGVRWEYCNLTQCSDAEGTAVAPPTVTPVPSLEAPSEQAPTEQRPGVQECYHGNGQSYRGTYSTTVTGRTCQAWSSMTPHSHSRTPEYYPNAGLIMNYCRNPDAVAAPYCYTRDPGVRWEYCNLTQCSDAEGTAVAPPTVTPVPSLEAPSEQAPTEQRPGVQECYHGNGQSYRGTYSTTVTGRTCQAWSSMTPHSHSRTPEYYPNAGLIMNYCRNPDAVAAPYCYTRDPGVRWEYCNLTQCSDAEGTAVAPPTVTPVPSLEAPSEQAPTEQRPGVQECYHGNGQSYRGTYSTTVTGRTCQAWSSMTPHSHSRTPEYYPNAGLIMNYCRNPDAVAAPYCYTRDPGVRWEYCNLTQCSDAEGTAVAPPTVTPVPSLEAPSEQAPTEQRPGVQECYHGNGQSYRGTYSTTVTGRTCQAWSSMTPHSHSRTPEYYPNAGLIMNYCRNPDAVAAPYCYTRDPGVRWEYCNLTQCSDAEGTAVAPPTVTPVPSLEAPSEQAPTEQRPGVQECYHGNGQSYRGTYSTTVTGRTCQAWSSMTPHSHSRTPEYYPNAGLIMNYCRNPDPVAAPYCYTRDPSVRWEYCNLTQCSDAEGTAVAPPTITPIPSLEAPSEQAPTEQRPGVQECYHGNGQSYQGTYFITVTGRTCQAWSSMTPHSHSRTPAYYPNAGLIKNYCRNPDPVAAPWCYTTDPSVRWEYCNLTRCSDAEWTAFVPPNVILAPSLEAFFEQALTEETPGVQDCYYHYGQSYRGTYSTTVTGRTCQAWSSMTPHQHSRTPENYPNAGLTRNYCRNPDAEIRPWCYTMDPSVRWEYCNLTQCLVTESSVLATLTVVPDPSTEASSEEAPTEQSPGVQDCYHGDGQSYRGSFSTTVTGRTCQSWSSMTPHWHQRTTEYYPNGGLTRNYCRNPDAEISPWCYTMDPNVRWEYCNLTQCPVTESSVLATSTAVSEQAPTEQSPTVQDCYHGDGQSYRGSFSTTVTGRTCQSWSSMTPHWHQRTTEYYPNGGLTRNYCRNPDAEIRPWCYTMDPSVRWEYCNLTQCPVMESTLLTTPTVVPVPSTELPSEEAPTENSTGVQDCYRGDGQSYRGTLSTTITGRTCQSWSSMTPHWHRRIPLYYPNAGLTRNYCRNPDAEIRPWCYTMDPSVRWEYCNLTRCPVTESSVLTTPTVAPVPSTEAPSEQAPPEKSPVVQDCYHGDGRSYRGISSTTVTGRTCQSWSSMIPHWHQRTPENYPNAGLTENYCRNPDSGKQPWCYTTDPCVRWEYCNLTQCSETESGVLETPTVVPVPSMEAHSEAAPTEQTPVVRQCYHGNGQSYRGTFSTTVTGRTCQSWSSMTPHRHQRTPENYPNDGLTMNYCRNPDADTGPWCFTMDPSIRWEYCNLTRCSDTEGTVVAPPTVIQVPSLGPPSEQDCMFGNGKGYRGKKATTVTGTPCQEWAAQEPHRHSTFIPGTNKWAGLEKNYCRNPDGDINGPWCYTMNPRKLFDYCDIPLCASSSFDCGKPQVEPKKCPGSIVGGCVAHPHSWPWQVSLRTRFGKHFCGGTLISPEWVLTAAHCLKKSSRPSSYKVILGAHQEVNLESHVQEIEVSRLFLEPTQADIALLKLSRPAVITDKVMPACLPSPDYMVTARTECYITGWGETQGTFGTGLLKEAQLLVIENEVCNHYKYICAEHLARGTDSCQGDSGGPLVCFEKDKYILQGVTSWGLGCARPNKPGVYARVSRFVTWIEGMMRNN
A general note: ELISA stands for enzyme-linked immunosorbent assay.

The nature of data set [2]: Pharmacokinetic test in C57BL/6J female mice. Type of data set: in vivo. The conditions noted are these: mouse, plasma; for bioavailability: gavage 10 mg/kg vs intravenous 2 mg/kg. The procedure: C57BL/6J female mice were used as test animals, and the drug concentration in plasma of C57BL/6J female mice at different time points after intravenous and gavage administration was determined to study the pharmacokinetic characteristics of the compound in C57BL/6J female mice.
Drug formulation: a certain amount of compound was weighed and normal saline was added to prepare clear, colorless solutions of 0.4 mg/mL (IV) and 1 mg/mL (PO).
Test procedure: C57BL/6J female mice were fasted overnight before gavage administration, followed by non-fasted intravenous administration. The intravenous dose was 2 mg/kg, and the gavage dose was 10 mg/kg. Approximately 0.03 mL of blood was collected from the orbital venous plexus at 0.083 (IV), 0.25, 0.5, 1, 2, 4, 8 and 24 h after administration, respectively, placed in a centrifuge tube containing EDTA-K2, centrifuged at 3000 rpm/min at 2-8° C. for 10 min to obtain plasma, and stored at −80° C.
Determination of the content of the compound to be tested in plasma of C57BL/6J female mice at different blood collection time points: 10 μL of plasma of C57BL/6J female mice collected at each time point after administration of LY3473329 and the compound of this application was added with 200 μL of 500 mM trichloroacetic acid aqueous solution to precipitate protein, which contained 100 ng/mL internal standard, vortexed for 1 min, centrifuged at 14000 rpm for 7 min for samples treated with test tubes, and centrifuged at 4000 rpm for 10 min for samples treated with 96-well plates, and 190 μL of the supernatant was transferred to a 96-well plate, and 8 μL of the supernatant was injected for LC-MS/MS analysis. WO2023078333A1 Example 6:12 μL of plasma of C57BL/6J female mice collected at each time point after administration was added with 240 μL of methanol to precipitate protein, which contained 10 ng/mL internal standard, vortexed for 1 min, centrifuged at 14000 rpm for 7 min for samples treated with test tubes, and centrifuged at 4000 rpm for 10 min for samples treated with 96-well plates. 220 μL of the supernatant was transferred to a 96-well plate, and 10 μL of the supernatant was taken for LC-MS/MS analysis.
After plasma concentrations were determined by LC/MS/MS analysis method, pharmacokinetic parameters (e.g. Cmax, AUC, T1/2, etc.) were calculated using WinNonlin software and noncompartmental analysis.

The test system of another data set is serum Lp(a). Description: Humanized mouse Lp(a) inhibition test. Type of data set: in vivo, humanized Lp(a) transgenic mouse. The conditions noted are these: blood 8 h after last dose, humanized Lp(a) mice. The procedure:
The in vivo pharmacodynamics of the compounds in reducing Lp(a) was evaluated in a humanized Lp(a) transgenic mouse model. Lp(a) mice were obtained by crossing mice expressing humanized apoB-100 with mice expressing humanized apo(a) containing 16 Kringle repeats. Female mice aged 8-9 weeks were selected for the test. Housing conditions: standard light cycle (12 h light/12 h dark), temperature 20-25° C., humidity 40-70%, free access to water and normal diet. is One day before the test, mice were divided into vehicle control group and test article group (n=5/group) according to body weight and baseline plasma Lp(a) concentration. Mice were orally administered with vehicle (normal saline, 10 mL/kg) or test compound (prepared with normal saline to 3 or 0.5 mg/mL, each mouse received 10 mL/kg), once daily (9:00 am) for 3 consecutive days, and blood was collected to determine the change of serum Lp(a). Eight hours after the last dose, 10 μL of blood was collected from the tail vein and transferred to a 1.5 mL centrifuge tube containing 90 μL of normal saline, mixed well, and left to stand on ice for 30 min. The above samples were centrifuged at 4° C., 3000 rpm for 10 min, and the supernatant was collected and placed on ice. The Lp(a) concentration in the supernatant was measured by double-antibody sandwich ELISA using an anti-apo(a) capture antibody and an HRP-conjugated anti-ApoB detection antibody, with TMB for color development. The reaction was stopped with 1 N sulfuric acid, and the OD value was read at 450 nm on a Tecan microplate reader. Inhibition rate was calculated for each dosing group. Inhibition rate (%)=(vehicle control group Lp(a) concentration or self pre-dose Lp(a) concentration post-dose Lp(a) concentration)/vehicle control group Lp(a) concentration or self pre-dose Lp(a) concentration*100.

Data set [3] in a line: Safety assessment test in rats (14-day oral gavage). Type of data set: in vivo. The conditions noted are these: SD rats, 300 and 1000 mg/kg oral once daily for 14 days. On the procedure:
The safety of the compounds of the present invention was evaluated by oral gavage administration to SD rats as the test animals.
Test method: 50 SD rats (half males and half females) were randomly divided into vehicle control group and test article group according to their body weight. The vehicle saline or the compound of the present invention or LY3473329 (300 mg/kg, 1000 mg/kg) was administered orally once daily for 14 consecutive days.

Where [4] appears, read: intravenous administration, 2 mg/kg.
Where [5] appears, read: po, gavage administration, 10 mg/kg.
[6] abbreviates: 5 mg/kg oral once daily for 3 days.

Structures are written as SMILES. pIC50: −log10 of the molar value.

A word on the pIC50: it is the negative decadic logarithm of the IC50, by convention in mol/L. As usually defined, the AUC is concentration integrated over time. Higher therefore signals more exposure. A word on the half-life: it is the time in which the quantity being followed falls by half. A lower half-life goes with fast loss. As usually defined, the bioavailability is dose-corrected exposure relative to a reference, in per cent. High values mean much systemic uptake, low ones little systemic uptake. Broadly, the Cmax is the peak of the concentration-time curve. `O=C(O)[C@@H](Cc1cccc(CC(=O)N(CCOc2cccc(C[C@H](C(=O)O)[C@H]3CCNC3)c2)Cc2cccc(C[C@H](C(=O)O)[C@H]3CCNC3)c2)c1)[C@H]1CCNC1` [Compound 96, (S)-3-(3-(2-((3-((S)-2-carboxy-2-((R)-pyrrolidin-3-yl)ethyl)benzyl)(2-(3-((S)-2-carboxy-2-((R)-pyrrolidin-3-yl)ethyl)phenoxy)ethyl)amino)-2-oxoethyl)phenyl)-2-((R)-pyrrolidin-3-yl)propanoic acid] had a pIC50 in data set [1] of 9.24. In data set [2] (setting [4]), this molecule had an AUC of 22900 ng·h/mL and a half-life of 23.3 h. Moreover, the bioavailability in data set [2] (po) was found to be 13.9%. Moreover, in data set [2] (setting [5]), the AUC came out at 12400 ng·h/mL, the Cmax amounted to 919 ng/mL and the half-life was 11.4 h. In addition, the “Lp(a) Inhibition Rate” value with serum Lp(a) (setting [6]) amounted to 91%. Besides, the “Lp(a) Inhibition Rate” value in the data set on serum Lp(a) (30 mg/kg oral once daily for 3 days) stood at 96%.
In turn, `O=C(O)[C@@H](Cc1cccc(CN(CCOc2cccc(C[C@H](C(=O)O)[C@H]3CCNC3)c2)C(=O)Nc2cccc(C[C@H](C(=O)O)[C@H]3CCNC3)c2)c1)[C@H]1CCNC1` [Compound 131, (S)-3-(3-(3-(3-((S)-2-carboxy-2-((R)-pyrrolidin-3-yl)ethyl)benzyl)-3-(2-(3-((S)-2-carboxy-2-((R)-pyrrolidin-3-yl)ethyl)phenoxy)ethyl)ureido)phenyl)-2-((R)-pyrrolidin-3-yl)propanoic acid] had a pIC50 in data set [1] of 8.92. In data set [2] (setting [4]), the AUC was 31300 ng·h/mL and the half-life was 33.7 h. This molecule came in with a bioavailability in data set [2] (po) of 13.2%. In data set [2] (setting [5]), this molecule gave an AUC of 14300 ng·h/mL, a Cmax of 893 ng/mL and a half-life of 16 h. In the data set with serum Lp(a) (setting [6]), the “Lp(a) Inhibition Rate” value is 81%.
Turning to `O=C(O)[C@@H](Cc1cccc(CC(=O)N(CCCOc2cccc(C[C@H](C(=O)O)[C@H]3CCNC3)c2)Cc2cccc(C[C@H](C(=O)O)[C@H]3CCNC3)c2)c1)[C@H]1CCNC1` [Compound 159, (S)-3-(3-(2-((3-((S)-2-carboxy-2-((R)-pyrrolidin-3-yl)ethyl)benzyl)(3-(3-((S)-2-carboxy-2-((R)-pyrrolidin-3-yl)ethyl)phenoxy)propyl)amino)-2-oxoethyl)phenyl)-2-((R)-pyrrolidin-3-yl)propanoic acid], the pIC50 in data set [1] is 8.77. In data set [2] (setting [4]), this molecule had an AUC of 33400 ng·h/mL and a half-life of 35.5 h. Also, the bioavailability in data set [2] (po) was 13.5%. Further, in data set [2] (setting [5]), the AUC was 21000 ng·h/mL, the highest level (Cmax) was 874 ng/mL and the half-life is 28.9 h. The “Lp(a) Inhibition Rate” value in the data set on serum Lp(a) (setting [6]) turned out to be 84%.
For `O=C(O)[C@@H](Cc1cccc(COCCN(Cc2cccc(C[C@H](C(=O)O)[C@H]3CCNC3)c2)C(=O)Cc2cccc(C[C@H](C(=O)O)[C@H]3CCNC3)c2)c1)[C@H]1CCNC1` [Compound 160, (S)-3-(3-(2-((3-((S)-2-carboxy-2-((R)-pyrrolidin-3-yl)ethyl)benzyl)(2-((3-((S)-2-carboxy-2-((R)-pyrrolidin-3-yl)ethyl)benzyl)oxy)ethyl)amino)-2-oxoethyl)phenyl)-2-((R)-pyrrolidin-3-yl)propanoic acid], the pIC50 in data set [1] was 8.86. Moreover, in data set [2] (setting [4]), the AUC worked out at 19200 ng·h/mL and the half-life is 12.1 h. Further, in data set [2] (po), the bioavailability stood at 15.9%. In data set [2] (setting [5]), the AUC stood at 23500 ng·h/mL, the highest level (Cmax) was 816 ng/mL and the half-life was 28.8 h. Moreover, the “Lp(a) Inhibition Rate” value in the data set with serum Lp(a) (setting [6]) is 83%.
As for `O=C(O)[C@@H](Cc1cccc(CN(Cc2cccc(C[C@H](C(=O)O)[C@H]3CCNC3)c2)Cc2cccc(C[C@H](C(=O)O)[C@H]3CCNC3)c2)c1)[C@H]1CCNC1` [LY3473329, reference compound], in data set [2] (setting [4]), the AUC is 8820 ng·h/mL and the half-life was 9.8 h. The molecule further showed a bioavailability in data set [2] (po) of 10.1%. In data set [2] (setting [5]), the AUC amounted to 4460 ng·h/mL, the peak level (Cmax) was 629 ng/mL and the half-life was 7.4 h. Besides, the “compound-related changes in clinical observation, body weight, food consumption, hematology, blood biochemistry, urine, organ weight, histopathology” value in data set [3] is listed as “no changes”.
